# Test results as given in patent publication US10961278B2, “Vancomycin derivative, preparation method, pharmaceutical composition and use thereof” (SHANGHAI INSTITUTE OF MATERIA MEDICA, CHINESE ACADEMY OF …, priority 2016, dated 2021).
# Where two headings read alike, the source gives them in different places.
# Assays:
# [1] = system: vancomycin-middle resistant Staphylococcus aureus Mu50 strain; assay: In vitro antibacterial activity assay (MIC, CLSI dilution method); format: cell-based
# [2] = system: vancomycin-sensitive Staphylococcus aureus Newman strain; assay: as above; format: cell-based; conditions: 16 h, S. aureus Newman, 37° C.; for MIC: Staphylococcus aureus
# [3] = Staphylococcus aureus, 16 h, S. aureus Mu50, 37° C., read-out: MIC Mu50
# [4] = Staphylococcus aureus, 16 h, read-out: MIC Mu50
# [5] = Staphylococcus aureus; S. aureus Mu50, 37° C., 16 h; read-out: MIC Mu50
Compound,"MIC [1, 3]",MIC ([2]; NEWMAN),MIC [2],other results
CN[C@H](CC(C)C)C(=O)N[C@H]1C(=O)N[C@@H](CC(N)=O)C(=O)N[C@H]2C(=O)N[C@H]3C(=O)N[C@H](C(=O)NC(C(=O)NCCCN(C)C)c4cc(O)c(CNCCCNC(=O)[C@H](O)[C@@H](O)[C@H](O)[C@H](O)CO)c(O)c4-c4cc3ccc4O)[C@H](O)c3ccc(c(Cl)c3)Oc3cc2cc(c3OC2O[C@H](CO)C(O)C(O)[C@H]2O[C@H]2CC(C)(NCc3ccc(-c4ccc(Cl)cc4)cc3)[C@H](O)C(C)O2)Oc2ccc(cc2Cl)[C@H]1O (some centres unmarked) [Van022],2 µg/mL,1 µg/mL,–,–
CCCCCCCCCCNCCNC1(C)C[C@H](O[C@H]2C(Oc3c4cc5cc3Oc3ccc(cc3Cl)[C@@H](O)[C@@H](NC(=O)[C@@H](CC(C)C)NC)C(=O)N[C@@H](CC(N)=O)C(=O)N[C@H]5C(=O)N[C@H]3C(=O)N[C@H](C(=O)N[C@H](C(=O)O)c5cc(O)c(CNCCOC6OC(CO)[C@@H](O)C(O)C6O)c(O)c5-c5cc3ccc5O)[C@H](O)c3ccc(c(Cl)c3)O4)O[C@H](CO)C(O)C2O)OC(C)[C@H]1O (some centres unmarked) [Van001],2 µg/mL,1 µg/mL,–,–
CCCCCCCCCCNCCNC1(C)C[C@H](O[C@@H]2C(O)C(O)[C@@H](CO)O[C@H]2Oc2c3cc4cc2Oc2ccc(cc2Cl)[C@@H](O)[C@@H](NC(=O)[C@@H](CC(C)C)NC)C(=O)N[C@@H](CC(N)=O)C(=O)N[C@H]4C(=O)N[C@@H]2C(=O)N[C@H](C(=O)N[C@H](C(=O)O)c4cc(O)c(CNC5C(O)OC(CO)[C@@H](O)[C@@H]5O)c(O)c4-c4cc2ccc4O)[C@H](O)c2ccc(c(Cl)c2)O3)O[C@@H](C)[C@H]1O (some centres unmarked) [Van007],–,–,–,"MIC Mu50 ([1]; S. aureus Mu50, 37° C., 16 h): 8 µg/mL; MIC Newman [2]: 4 µg/mL"
CCCCCCCCCC(=O)NC1(C)C[C@H](O[C@H]2C(Oc3c4cc5cc3Oc3ccc(cc3Cl)[C@@H](O)[C@@H](NC(=O)[C@@H](CC(C)C)NC)C(=O)N[C@@H](CC(N)=O)C(=O)N[C@H]5C(=O)N[C@H]3C(=O)N[C@H](C(=O)N[C@H](C(=O)O)c5cc(O)c(CNCCCNC(=O)[C@H](O)[C@@H](O)[C@H](O)[C@H](O)CO)c(O)c5-c5cc3ccc5O)[C@H](O)c3ccc(c(Cl)c3)O4)O[C@H](CO)C(O)C2O)CC(C)[C@H]1O (some centres unmarked) [Van026],64 µg/mL,32 µg/mL,–,–
CN[C@H](CC(C)C)C(=O)N[C@H]1C(=O)N[C@@H](CC(N)=O)C(=O)N[C@H]2C(=O)N[C@H]3C(=O)N[C@H](C(=O)N[C@H](C(=O)O)c4cc(O)c(CNCCCNC(=O)[C@H](O)[C@@H](O)[C@H](O)[C@H](O)CO)c(O)c4-c4cc3ccc4O)[C@H](O)c3ccc(c(Cl)c3)Oc3cc2cc(c3OC2O[C@H](CO)C(O)C(O)[C@H]2O[C@@H]2CC(C)[C@@H](O)C(C)(NCc3ccc(-c4ccc(Cl)cc4)cc3)C2)Oc2ccc(cc2Cl)[C@H]1O (some centres unmarked) [Van014],–,–,0.25 µg/mL,"MIC [1, 4]: 0.125 µg/mL"
CCCCCCCCCCNCCNC1(C)C[C@H](O[C@H]2C(Oc3c4cc5cc3Oc3ccc(cc3Cl)[C@@H](O)[C@@H](NC(=O)[C@@H](CC(C)C)NC)C(=O)N[C@@H](CC(N)=O)C(=O)N[C@H]5C(=O)N[C@H]3C(=O)N[C@H](C(=O)N[C@H](C(=O)O)c5cc(O)c(CNCCO[C@@H]6OC(CO)[C@@H](O)C(O)C6NC(C)=O)c(O)c5-c5cc3ccc5O)[C@H](O)c3ccc(c(Cl)c3)O4)O[C@H](CO)C(O)C2O)OC(C)[C@H]1O (some centres unmarked) [Van003],16 µg/mL,4 µg/mL,–,–
CN[C@H](CC(C)C)C(=O)N[C@H]1C(=O)N[C@@H](CC(N)=O)C(=O)N[C@H]2C(=O)N[C@@H]3C(=O)N[C@H](C(=O)N[C@H](C(=O)O)c4cc(O)c(CNC5C(O)OC(CO)[C@H](O)[C@@H]5O)c(O)c4-c4cc3ccc4O)[C@H](O)c3ccc(c(Cl)c3)Oc3cc2cc(c3O[C@@H]2O[C@H](CO)C(O)C(O)[C@H]2O[C@H]2CC(C)(NCc3ccc(C#C[Si](C)(C)C)cc3)[C@H](O)[C@H](C)O2)Oc2ccc(cc2Cl)[C@H]1O (some centres unmarked) [Van033],–,–,0.5 µg/mL,"MIC [1, 5]: 2 µg/mL"
CCCCCCCCCCNCCNC1(C)C[C@H](O[C@H]2C(Oc3c4cc5cc3Oc3ccc(cc3Cl)[C@@H](O)[C@@H](NC(=O)[C@@H](CC(C)C)NC)C(=O)N[C@@H](CC(N)=O)C(=O)N[C@H]5C(=O)N[C@H]3C(=O)N[C@H](C(=O)N[C@H](C(=O)O)c5cc(O)c(CNCCO[C@@H]6OC(CO)[C@H](O)C(O)C6O)c(O)c5-c5cc3ccc5O)[C@H](O)c3ccc(c(Cl)c3)O4)O[C@H](CO)C(O)C2O)OC(C)[C@H]1O (some centres unmarked) [Van002],2 µg/mL,0.5 µg/mL,–,–
C#Cc1ccc(CNC2(C)C[C@H](O[C@@H]3C(O)C(O)[C@@H](CO)O[C@H]3Oc3c4cc5cc3Oc3ccc(cc3Cl)[C@@H](O)[C@@H](NC(=O)[C@@H](CC(C)C)NC)C(=O)N[C@@H](CC(N)=O)C(=O)N[C@H]5C(=O)N[C@@H]3C(=O)N[C@H](C(=O)N[C@H](C(=O)O)c5cc(O)c(CNC6C(O)OC(CO)[C@H](O)[C@@H]6O)c(O)c5-c5cc3ccc5O)[C@H](O)c3ccc(c(Cl)c3)O4)O[C@@H](C)[C@H]2O)cc1 (some centres unmarked) [Van035],–,–,2 µg/mL,"MIC [1, 4]: 8 µg/mL"
CN[C@H](CC(C)C)C(=O)N[C@H]1C(=O)N[C@@H](CC(N)=O)C(=O)N[C@H]2C(=O)N[C@H]3C(=O)N[C@H](C(=O)N[C@H](C(=O)O)c4cc(O)c(CNCCCNC(=O)[C@H](O)[C@@H](O)[C@H](O)[C@H](O)CO)c(O)c4-c4cc3ccc4O)[C@H](O)c3ccc(c(Cl)c3)Oc3cc2cc(c3OC2O[C@H](CO)C(O)C(O)[C@H]2O[C@@H]2CC(C)[C@@H](O)C(C)(NCc3ccc(C#C[Si](C)(C)C)cc3)C2)Oc2ccc(cc2Cl)[C@H]1O (some centres unmarked) [Van028],–,–,1 µg/mL,"MIC [1, 5]: 2 µg/mL"
CCCCCc1ccc(CNC2(C)C[C@H](O[C@H]3C(Oc4c5cc6cc4Oc4ccc(cc4Cl)[C@@H](O)[C@@H](NC(=O)[C@@H](CC(C)C)NC)C(=O)N[C@@H](CC(N)=O)C(=O)N[C@H]6C(=O)N[C@H]4C(=O)N[C@H](C(=O)N[C@H](C(=O)O)c6cc(O)c(CNCCCNC(=O)[C@H](O)[C@@H](O)[C@H](O)[C@H](O)CO)c(O)c6-c6cc4ccc6O)[C@H](O)c4ccc(c(Cl)c4)O5)O[C@H](CO)C(O)C3O)CC(C)[C@H]2O)cc1 (some centres unmarked) [Van031],0.5 µg/mL,0.125 µg/mL,–,–
C#Cc1ccc(CNC2(C)C[C@H](O[C@H]3C(Oc4c5cc6cc4Oc4ccc(cc4Cl)[C@@H](O)[C@@H](NC(=O)[C@@H](CC(C)C)NC)C(=O)N[C@@H](CC(N)=O)C(=O)N[C@H]6C(=O)N[C@H]4C(=O)N[C@H](C(=O)N[C@H](C(=O)O)c6cc(O)c(CNCCCNC(=O)[C@H](O)[C@@H](O)[C@H](O)[C@H](O)CO)c(O)c6-c6cc4ccc6O)[C@H](O)c4ccc(c(Cl)c4)O5)O[C@H](CO)C(O)C3O)CC(C)[C@H]2O)cc1 (some centres unmarked) [Van029],8 µg/mL,4 µg/mL,–,–
CCCCCCCCCNC1(C)C[C@H](O[C@H]2C(Oc3c4cc5cc3Oc3ccc(cc3Cl)[C@@H](O)[C@@H](NC(=O)[C@@H](CC(C)C)NC)C(=O)N[C@@H](CC(N)=O)C(=O)N[C@H]5C(=O)N[C@H]3C(=O)N[C@H](C(=O)N[C@H](C(=O)O)c5cc(O)c(CNCCCNC(=O)[C@H](O)[C@@H](O)[C@H](O)[C@H](O)CO)c(O)c5-c5cc3ccc5O)[C@H](O)c3ccc(c(Cl)c3)O4)O[C@H](CO)C(O)C2O)CC(C)[C@H]1O (some centres unmarked) [Van019],2 µg/mL,0.5 µg/mL,–,–
CN[C@H](CC(C)C)C(=O)N[C@H]1C(=O)N[C@@H](CC(N)=O)C(=O)N[C@H]2C(=O)N[C@@H]3C(=O)N[C@H](C(=O)N[C@H](C(=O)NCCCNC(=O)[C@H](O)[C@@H](O)[C@H](O)[C@H](O)CO)c4cc(O)cc(O)c4-c4cc3ccc4O)[C@H](O)c3ccc(c(Cl)c3)Oc3cc2cc(c3OC2O[C@H](CO)C(O)C(O)[C@H]2O[C@H]2CC(C)(NCc3ccc(-c4ccc(Cl)cc4)cc3)[C@H](O)C(C)O2)Oc2ccc(cc2Cl)[C@H]1O (some centres unmarked) [Van023],–,–,2 µg/mL,"MIC [1, 4]: 4 µg/mL"
CCCCCCCCCCNCCNC1(C)C[C@H](O[C@@H]2C(O)C(O)[C@@H](CO)O[C@H]2Oc2c3cc4cc2Oc2ccc(cc2Cl)[C@@H](O)[C@@H](NC(=O)[C@@H](CC(C)C)NC)C(=O)N[C@@H](CC(N)=O)C(=O)N[C@H]4C(=O)N[C@@H]2C(=O)N[C@H](C(=O)N[C@H](C(=O)O)c4cc(O)c(CNC5C(O)OC(CO)[C@H](O)[C@@H]5O)c(O)c4-c4cc2ccc4O)[C@H](O)c2ccc(c(Cl)c2)O3)O[C@@H](C)[C@H]1O (some centres unmarked) [Van008],0.25 µg/mL,≤ 0.0625 µg/mL,–,–
CN[C@H](CC(C)C)C(=O)N[C@H]1C(=O)N[C@@H](CC(N)=O)C(=O)N[C@H]2C(=O)N[C@@H]3C(=O)N[C@H](C(=O)NC(C(=O)NCCCN(C)C)c4cc(O)cc(O)c4-c4cc3ccc4O)[C@H](O)c3ccc(c(Cl)c3)Oc3cc2cc(c3OC2O[C@H](CO)C(O)C(O)[C@H]2O[C@H]2CC(C)(NCc3ccc(-c4ccc(Cl)cc4)cc3)[C@H](O)C(C)O2)Oc2ccc(cc2Cl)[C@H]1O (some centres unmarked) [Van020],–,–,1 µg/mL,"MIC [1, 4]: 1 µg/mL"
CCCCCCCCCCNCCNC1(C)C[C@H](O[C@@H]2C(O)C(O)[C@@H](CO)O[C@H]2Oc2c3cc4cc2Oc2ccc(cc2Cl)[C@@H](O)[C@@H](NC(=O)[C@@H](CC(C)C)NC)C(=O)N[C@@H](CC(N)=O)C(=O)N[C@H]4C(=O)N[C@@H]2C(=O)N[C@H](C(=O)N[C@H](C(=O)O)c4cc(O)c(CNC5C(O)OC(CO)[C@@H](O)[C@@H]5O)c(O)c4-c4cc2ccc4O)[C@H](O)c2ccc(c(Cl)c2)O3)O[C@@H](C)[C@H]1O (some centres unmarked) [Van006],–,8 µg/mL,–,"MIC Mu50 ([1]; S. aureus Mu50, 37° C., 16 h): 32 µg/mL"
CCCCCCCCCCNC1(C)C[C@H](O[C@H]2C(Oc3c4cc5cc3Oc3ccc(cc3Cl)[C@@H](O)[C@@H](NC(=O)[C@@H](CC(C)C)NC)C(=O)N[C@@H](CC(N)=O)C(=O)N[C@H]5C(=O)N[C@H]3C(=O)N[C@H](C(=O)N[C@H](C(=O)O)c5cc(O)c(CNCCCNC(=O)[C@H](O)[C@@H](O)[C@H](O)[C@H](O)CO)c(O)c5-c5cc3ccc5O)[C@H](O)c3ccc(c(Cl)c3)O4)O[C@H](CO)C(O)C2O)CC(C)[C@H]1O (some centres unmarked) [Van024],0.5 µg/mL,0.125 µg/mL,–,–
CCc1ccc(CNC2(C)C[C@H](O[C@H]3C(Oc4c5cc6cc4Oc4ccc(cc4Cl)[C@@H](O)[C@@H](NC(=O)[C@@H](CC(C)C)NC)C(=O)N[C@@H](CC(N)=O)C(=O)N[C@H]6C(=O)N[C@H]4C(=O)N[C@H](C(=O)N[C@H](C(=O)O)c6cc(O)c(CNCCCNC(=O)[C@H](O)[C@@H](O)[C@H](O)[C@H](O)CO)c(O)c6-c6cc4ccc6O)[C@H](O)c4ccc(c(Cl)c4)O5)O[C@H](CO)C(O)C3O)CC(C)[C@H]2O)cc1 (some centres unmarked) [Van018],8 µg/mL,4 µg/mL,–,–
